How the values were obtained:
Type in all cases: in vivo
[1] = tested on: House longhorn beetle (Hylotrupes bajulus); assay: Fumigation test in glass vessel, house longhorn beetles; details: HYLOBA beetles; Example 7; ACF 53.0/54.6/0 g/m^3, second gas (SF) 43.6/41.4/39.8 g/m^3 (1st/2nd/3rd fumigation); 20.0/20.2/19.8 C.
Source text: (§1) b1) House longhorn beetle (Hylotrupes bajulus)=HYLOBA
(§2) The test organisms, separated by species, were placed into a glass vessel measuring 30 cm×30 cm×60 cm, which was sealed with a glass lid so as to be airtight. The adults and the larvae of the mealworm beetle (Tenebrio molitor) and the broad-horned flour beetle (Gnathocerus cornutus) were placed into small glass vessels approximately 5 cm in diameter, which were closed with a gauze lid and in which they could freely move about. The larvae of the rice weevil had burrowed into seeds of grain. The wood pest larvae were inserted into small blocks of wood measuring 5 cm×2.5 cm×2 cm. The openings were sealed with wads of cotton wool. Only one each of the larvae of the house longhorn beetle (Hylotrupes bajulus) was inserted into a piece of wood, while 6-8 larvae of the common furniture beetle (Anobium punctatum) were inserted into each piece of wood.
(§3) The respective gas was then introduced into the fumigation vessel through a gas line from a gas tank that contained the specified amount of gas. After a defined time period, the fumigation vessel was purged with compressed air. The discharged gas was purified by an attached gas scrubber.
(§4) The beetles were observed until they died. This point was recorded for each species. The larvae of the wood pests as well as the larvae of the rice weevil (Sitophilus oryzae) had to be picked out of the wood or the grain to check their condition. If any of the animals were still alive, the wooden test blocks remaining in the vessel were fumigated again and were reexamined after the corresponding time span had elapsed. The same number of animals in the untreated control was also checked at each point.
(§5) The vitality of the animals was checked at certain time intervals. The beetles could be observed through the fumigation vessel. This was also true for the larvae of the mealworm beetle and the broad-horned flour beetle. The wooden test blocks of the wood pest larvae were opened with hammer and chisel. Tweezers were used to pull the rice weevil larvae out of the grain seeds. The exact time intervals and the number of the evaluated pests were documented in the test results.

[2] = tested on: Rice weevil (Sitophilus oryzae); assay: Fumigation test in glass vessel, rice weevils; details: SITTOR beetles; Example 7; ACF 53.0/54.6/0 g/m^3, second gas (SF) 43.6/41.4/39.8 g/m^3 (1st/2nd/3rd fumigation); 20.0/20.2/19.8 C.
Source text: a2) Rice weevil (Sitophilus oryzae)=SITTOR
as §2, §3, §4, §5

[3] = tested on: Mealworm beetle (Tenebrio molitor); assay: Fumigation test in glass vessel, mealworm beetles; details: TENEMO beetles; Example 7; ACF 53.0/54.6/0 g/m^3, second gas (SF) 43.6/41.4/39.8 g/m^3 (1st/2nd/3rd fumigation); 20.0/20.2/19.8 C.
Source text: (§6) a1) Mealworm beetle (Tenebrio molitor)=TENEMO
as §2, §3, §4, §5

[4] = tested on: Saw-toothed grain beetle (Oryzaephilus surinamensis); assay: Fumigation test in glass vessel, saw-toothed grain beetles; details: ORYZSA beetles; Example 7; ACF 53.0/54.6/0 g/m^3, second gas (SF) 43.6/41.4/39.8 g/m^3 (1st/2nd/3rd fumigation); 20.0/20.2/19.8 C.
Source text: a4) Saw-toothed grain beetle (Oryzaephilus surinamensis)=ORYZSA
as §2, §3, §4, §5

[5] = tested on: House longhorn beetle (Hylotrupes bajulus) larvae; assay: Fumigation test in glass vessel, house longhorn beetle larvae in wood blocks; details: HYLOBA larvae in wood blocks; Example 7; ACF 53.0/54.6/0 g/m^3, second gas (SF) 43.6/41.4/39.8 g/m^3 (1st/2nd/3rd fumigation); 20.0/20.2/19.8 C.
Source text: as §1, §2, §3, §4, §5

[6] = tested on: Mealworm beetle (Tenebrio molitor) larvae; assay: Fumigation test in glass vessel, mealworm beetle larvae; details: TENEMO larvae; Example 7; ACF 53.0/54.6/0 g/m^3, second gas (SF) 43.6/41.4/39.8 g/m^3 (1st/2nd/3rd fumigation); 20.0/20.2/19.8 C.
Source text: as §6, §2, §3, §4, §5

[7] = tested on: Broad-horned flour beetle (Gnathocerus cornutus) larvae; assay: Fumigation test in glass vessel, broad-horned flour beetle larvae; details: GNATCO larvae; Example 7; ACF 53.0/54.6/0 g/m^3, second gas (SF) 43.6/41.4/39.8 g/m^3 (1st/2nd/3rd fumigation); 20.0/20.2/19.8 C.
Source text: (§7) a3) Broad-horned flour beetle (Gnathocerus cornutus)=GNATCO
as §2, §3, §4, §5

[8] = tested on: Broad-horned flour beetle (Gnathocerus cornutus); assay: Fumigation test in glass vessel, broad-horned flour beetles; details: GNATCO beetles; Example 7; ACF 53.0/54.6/0 g/m^3, second gas (SF) 43.6/41.4/39.8 g/m^3 (1st/2nd/3rd fumigation); 20.0/20.2/19.8 C.
Source text: as §7, §2, §3, §4, §5

[9] = tested on: Common furniture beetle (Anobium punctatum) larvae; assay: Fumigation test in glass vessel, common furniture beetle larvae in wood blocks; details: ANOBPU larvae in wood blocks; Example 7; ACF 53.0/54.6/0 g/m^3, second gas (SF) 43.6/41.4/39.8 g/m^3 (1st/2nd/3rd fumigation); 20.0/20.2/19.8 C.
Source text: b2) Common furniture beetle (Anobium punctatum)=[…]
as §2, §3, §4, §5

## O=C(F)C(F)(F)Cl [CFACF, chlorodifluoroacetyl fluoride]
[1]
  Number alive, 30 min. after 1st Fumigation: 0
  Number dead, 30 min. after 1st Fumigation: 6
[2]
  Number alive, 30 min. after 1st Fumigation: 7
  Number alive, 1 hr. after 1st Fumigation: 7
  Number alive, 3 hrs. after 1st Fumigation: 0
  Number dead, 30 min. after 1st Fumigation: 8
  Number dead, 1 hr. after 1st Fumigation: 8
  Number dead, 3 hrs. after 1st Fumigation: 15
[3]
  Number alive, 30 min. after 1st Fumigation: 10
  Number alive, 1 hr. after 1st Fumigation: 10
  Number alive, 3 hrs. after 1st Fumigation: 10
  Number alive, 6 hrs after 1st Fumigation: 5
  Number dead, 30 min. after 1st Fumigation: 0
  Number dead, 1 hr. after 1st Fumigation: 0
  Number dead, 3 hrs. after 1st Fumigation: 0
  Number dead, 6 hrs after 1st Fumigation: 5
[4]
  Number alive, 30 min. after 1st Fumigation: 0
  Number dead, 30 min. after 1st Fumigation: 15
[5]
  Number alive, 1 hr. after 1st Fumigation: 5
  Number alive, 3 hrs. after 1st Fumigation: 5
  Number alive, 6 hrs after 1st Fumigation: 5
  Number dead, 1 hr. after 1st Fumigation: 0
  Number dead, 3 hrs. after 1st Fumigation: 0
  Number dead, 6 hrs after 1st Fumigation: 0
[6]
  Number alive, 30 min. after 1st Fumigation: 10
  Number alive, 1 hr. after 1st Fumigation: 10
  Number alive, 3 hrs. after 1st Fumigation: 0
  Number dead, 30 min. after 1st Fumigation: 0
  Number dead, 1 hr. after 1st Fumigation: 0
  Number dead, 3 hrs. after 1st Fumigation: 10
[7]
  Number alive, 30 min. after 1st Fumigation: 7
  Number alive, 1 hr. after 1st Fumigation: 7
  Number alive, 3 hrs. after 1st Fumigation: 0
  Number dead, 30 min. after 1st Fumigation: 8
  Number dead, 1 hr. after 1st Fumigation: 8
  Number dead, 3 hrs. after 1st Fumigation: 15
[8]
  Number alive, 30 min. after 1st Fumigation: 0
  Number dead, 30 min. after 1st Fumigation: 15
[9]
  Number alive, 1 hr. after 1st Fumigation: 6
  Number alive, 3 hrs. after 1st Fumigation: 3
  Number alive, 6 hrs after 1st Fumigation: 4
  Number dead, 1 hr. after 1st Fumigation: 0
  Number dead, 3 hrs. after 1st Fumigation: 3
  Number dead, 6 hrs after 1st Fumigation: 2

— patent US20030017186A1, “Carboxylic acid fluorides as pesticides” (priority 1999, published 2003)
